“Also recorded” adds a separate entry of the source.
Columns and labels:
normal iPSC BC1 = assay: in vitro megakaryocyte lineage differentiation of iPSC BC1 (spin-EB), flow cytometry at Day 14; assay type: cell-based, human; settings: for decrease of proportion of HSPCs (CD34+CD45+) vs DMSO control / proportion of MKPs (CD34+CD41+) produced, increased fold vs DMSO control (set as 1) / proportion of mature megakaryocytes MKs (CD41+CD42+) produced, increased fold vs DMSO control (set as 1): FIG. 7A; for production of megakaryocyte progenitor cells and/or mature megakaryocytes in vitro: screen in the in vitro differentiation system of stem cells
Protocol: BC1 cell line was cultured in E8 medium, under the culture condition of 37° C., 5% CO2, and was passaged at (1:5)-(1:10) every 3-4 days depending on the concentration of cells. The cells were incubated in 0.5 mM EDTA, at room temperature for 2 min, and then were re-suspended and split up and down with E8 medium, and transferred to a culture dish that had been coated with Vitronectin one hour before.
During differentiation, spin-embryoid body (spin-EB) method was used (Ng E S, Davis R, Stanley E G, Elefanty A G, A protocol describing the use of a recombinant protein-based, animal product-free medium (APEL) for human embryonic stem cell differentiation as spin embryoid bodies, Nat Protoc. 2008; 3(5): 768-76.). At Day 0 (D0) after differentiation, iPSCs reached a confluence of above 85% (confluence refers to the percentage of the surface of a culture dish that is covered by adherent cells). After digestion with Accutase at 37° C. for 3 min, the cells were neutralized and split in SFM medium (50% IMDM, 50% Ham's F12, and the added reagents and factors including: human albumin, monothioglycerol, Glutamax, Chemically Defined Lipid Concentrate, L-Ascorbic acid 2-phosphate sesquimagnesium salt hydrate, ITS-X), counted, and centrifuged. After the cells were re-suspended in SFM, cytokines, i.e. 10 μM ROCK inhibitor (Rho-associated protein kinase inhibitor), 10 ng/ml bFGF, and 10 ng/ml BMP4, were added. Cells were seeded to a round-bottom 96-well plate, at 3000 or 5000 cells/50 μl for each well (3000 or 5000 cells were seeded to each well, in a volume of 50 μl for each well). At Day 2, 50 μl SFM medium+10 ng/ml bFGF+10 ng/ml BMP4+100 ng/ml SCF+20 ng/ml VEGF was added to each well. At Day 5, Day 8, and Day 11, 50 μl SFM medium+10 ng/ml bFGF+10 ng/ml BMP4+50 ng/ml SCF+10 ng/ml VEGF was added to each well, wherein 100 μl old medium was pipetted off at Day 8, and 10 ng/ml thrombopoietin (TPO) was added to each well at Day 11.
At Day 14 (D14), single cells (suspending cells) surrounding embryoid bodies (EBs) were collected. The cells were used in the following flow cytometry.
The cell surface markers (CD34, CD45, CD41, CD42) of the collected cells were detected by flow cytometer. The assay was as followed.
The detection was carried out in four tubes: the first tube was a negative tube that was not labeled with any flow antibody; the second tube was labelled with two antibodies CD34-APC and CD45-PE; the third tube was labeled with CD34-APC and CD41-PE; and the fourth tube was labeled with CD41-PE and CD42-APC, wherein CD34^+CD45^+represented the population of hematopoietic stem/progenitor cells (HSPCs), CD34^+CD41^+ represented the population of megakaryocyte progenitor cells (MKPs), and CD41^+CD42^+ represented the population of mature megakaryocytes (MKs).
(1) The BC1 cell line used was the same as the one used in Example 1, and was divided into three groups, wherein two 96-well plates were used for each group, and the cells were seeded at 5000 cells/50 μl to each well. In vitro differentiation was carried out by reference to the steps in Example 1, wherein the step of adding a drug was carried out in accordance with the following steps in I-III groups:
I. At Day 0 after differentiation, 10 μM RO4929097 was added, and DMSO was added to the control well.
III. At Day 2 after differentiation, 10 μM RO4929097, 10 μM L-685458, and 10 μM DAPT were added, respectively; in addition, at Day 5 after differentiation, 10 μM RO4929097, 10 μM L-685458, and 10 μM DAPT were added, respectively.
(2) The cells were collected for flow cytometry analysis, and as to the steps, please refer to the Example 1 above. […]
I. At Day 0 after differentiation, 10 μM RO4929097, and 10 μM DAPT were added, respectively.
II. At Day 2 after differentiation, 10 μM RO4929097, and 10 μM DAPT were added, respectively.
III. At Day 5 after differentiation, 10 μM RO4929097, and 10 μM DAPT were added, respectively.
IV. […]

[1] = system: umbilical cord blood-derived CD34+ cells; assay: polyploid detection, umbilical cord blood-derived CD34+ cells; assay type: cell-based, human; settings: 10 μM; DMSO about 16%; FIG. 18
Protocol: iPSC-derived CD34^+ cells (prepared by the method as described in Example 3-2) and umbilical cord blood-derived CD34^+ cells were seeded at 1*10^6 cells per well to 4 ml StemSpan™ SFEM 11+50 ng/ml SCF+50 ng/ml TPO+50 ng/ml IL-6+20 ng/ml IL-3, in a 12-well plate, with 1 ml medium for each well, and 3 wells in total for each cell line, to which 10 μM RO4929097, 10 μM DAPT, and the same volume of DMSO as control, were added, respectively, and the time was recorded as Day 0. The liquid was changed every 3 days, and the culture condition was 37° C., 5% CO2. After iPSC-derived CD34^+ cells were incubated for 6 days, and umbilical cord blood-derived CD34^+ cells were incubated for 9 days, the following experiment was carried out.
Cells were labeled with CD61-FITC flow cytometric antibody at 4° C. for 30 min. The cells were washed with PBS once, and fixed with 70% ethanol at 4° C. overnight. At the second day, the cells were washed with PBS once. After centriguation, 1 ml PBE (PBS containing 2% serum) +100 μg/ml RNase A +50 μg/ml Propidium Iodide, was added, and incubation was carried out in dark at room temperature for 30 min. The cells were washed with PBS once, and the number of cells (≥8N) in CD61^+ cell population was determined by flow cytometry.

[2] = 10 μM at Day 5 after in vitro differentiation, found by comparison

SMILES | decrease of proportion of HSPCs (CD34+CD45+) vs DMSO control (normal iPSC BC1; 10 μM added at Day 2) [%] | proportion of MKPs (CD34+CD41+) produced, increased fold vs DMSO control (set as 1) (normal iPSC BC1; 10 μM added at Day 2) | proportion of mature megakaryocytes MKs (CD41+CD42+) produced, increased fold vs DMSO control (set as 1) (normal iPSC BC1; 10 μM added at Day 2) | number of MKPs (CD34+CD41+) produced, increase vs DMSO control (normal iPSC BC1; 10 μM added at Day 2, FIG. 9) [folds] | number of mature megakaryocytes MKs (CD41+CD42+) produced, increase vs DMSO control (normal iPSC BC1; 10 μM added at Day 2, FIG. 9) [folds] | proportion of mature megakaryocytes MKs produced, increased fold vs DMSO control (set as 1) (normal iPSC BC1; 10 μM added at Day 5, FIG. 7B) | total number of hematopoietic cells, increase vs control group (normal iPSC BC1; 10 μM added at Day 5, FIG. 7B) | number of HSPCs (CD34+CD45+), increase vs DMSO control (normal iPSC BC1; 10 μM added at Day 5, FIG. 10) [folds] | number of MKPs (CD34+CD41+) produced, increase vs DMSO control (normal iPSC BC1; 10 μM added at Day 5, FIG. 10) | number of mature megakaryocytes MKs (CD41+CD42+) produced, increase vs DMSO control (normal iPSC BC1; 10 μM added at Day 5, FIG. 10) | number of MKPs (CD34+CD41+) produced, increase vs DMSO control (normal iPSC BC1; 10 μM added at Day 8, FIG. 12) [folds] | number of mature megakaryocytes MKs (CD41+CD42+) produced, increase vs DMSO control (normal iPSC BC1; 10 μM added at Day 8, FIG. 12) [folds] | number of mature megakaryocytes MKs (CD41+CD42+) produced, increase vs DMSO control (normal iPSC BC1; 10 μM added at Day 11, FIG. 13) [folds] | production of megakaryocyte progenitor cells and/or mature megakaryocytes in vitro (normal iPSC BC1) | proportion of polyploid megakaryocytes (≥8N) in CD61+ megakaryocytes [1] | further results
C[C@H](NC(=O)Cc1cc(F)cc(F)c1)C(=O)N[C@H](C(=O)OC(C)(C)C)c1ccccc1 [DAPT] | 35 | about 1.5 folds | about 2.4 folds | 2.5 | 4.3 | about 4.1 folds | 2.8 folds | 2.8 | about 6.5 folds | about 6.7 folds | 1.5 | 1.5 | 1.3 | significantly promote | ~12% | proportion of HSPCs produced, increased fold vs DMSO control (set as 1) (normal iPSC BC1; 10 μM added at Day 5, FIG. 7B): about 1.5 folds; proportion of MKPs produced, increased fold vs DMSO control (set as 1) (normal iPSC BC1; 10 μM added at Day 5, FIG. 7B): about 1.5 folds; promotion of the production of mature megakaryocytes (normal iPSC BC1; [2]): ~12 folds; promotion of the production of megakaryocyte progenitor cells (normal iPSC BC1; [2]): 4 folds
CC(C)(C(=O)NCC(F)(F)C(F)(F)F)C(=O)N[C@@H]1C(=O)Nc2ccccc2-c2ccccc21 [RO4929097] | 40 | about 1.4 folds | about 2.5 folds | 2.5 | 4.3 | about 2.6 folds | did not change | 2.8 | about 6.5 folds | about 6.7 folds | 1.5 | 1.5 | 1.3 | significantly promote | about 15% | proportion of HSPCs (CD34+CD45+) (normal iPSC BC1; 10 μM added at Day 0, FIG. 5): ~0%; proportion of MKPs (CD34+CD41+) (normal iPSC BC1; 10 μM added at Day 0, FIG. 5): ~0%; proportion of MKs (CD41+CD42+) (normal iPSC BC1; 10 μM added at Day 0, FIG. 5): ~0%; formation of hematopoietic embryoid body (EB) (normal iPSC BC1; 10 μM added at Day 0 after differentiation): no hematopoietic embryoid body EB was formed; also recorded: no hematopoietic embryoid body (EB) could be formed; increase of proportion of mature megakaryocytes MKs (CD41+CD42+) produced vs DMSO control (normal iPSC BC1; 10 μM added at Day 2, FIG. 6): 64%; increase of proportion of megakaryocyte progenitor cells MKPs (CD34+CD41+) produced vs DMSO control (normal iPSC BC1; 10 μM added at Day 2, FIG. 6): 67%; decrease of proportion of HSPCs vs DMSO control (normal iPSC BC1; 10 μM added at Day 5, FIG. 7B): 11%; effect on promoting the production of MKPs and MKs (normal iPSC BC1; 15 μM added at Day 2, FIG. 6, not as significant as 10 μM): a certain effect on promoting the production of MKPs and MKs

— patent US20200022998A1, “MEDICAL USE OF NOTCH4 OR INHIBITORS THEREOF” (BEIJING INSTITUTE OF GENOMICS, CHINESE ACADEMY OF SCIENCES, priority 2016, published 2020)
